Assay results published in patent US11084879B2, “Compositions and methods for treating pancreatitis and pain with death receptor agonists” (The Johns Hopkins University, priority 2016, dated 2021).
Read-outs that look alike come from different tables or passages of the source.

Tests used:
activated PSCs = assay: Apoptosis markers in activated PSCs, TRAILPEG versus conventional toxic agents; format: cell-based, human; details: 48 hr, DOX 100 nM, CIS 10 μM, H2O2 10 μM
[1] = rodents; cited from earlier work
[2] = humans; cited from earlier work
EtOH-activated PSCs = assay: Caspase 3/7 assay in EtOH-activated PSCs; format: cell-based, human; details: alcohol-activated PSCs; different concentrations (0-10^3 ng/mL), alcohol still present in culture
Protocol: Caspase 3/7 activities were measured by caspase3/7 assay kit (Promega) according to the manufacturer's protocol. The luminescence of each sample was measured on a plate reader (Bio-Tek Instruments Inc) with parameters of 1 min lag time and 0.5 sec/well read time (n=4).
To investigate TRAIL-induced apoptosis in alcohol-activated PSCs, 2×10^4 cells were cultured for overnight in a 96-well plate and then activated with 50 mM EtOH for 48 h. […] Apoptosis was measured by MTT cell death assay and caspase 3/7 assay as described above.

| Compound | killing of activated PSCs by conventional toxic agents (activated PSCs) | other results |
| --- | --- | --- |
| N.N.[Cl][Pt][Cl] [cisplatin] | difficult to kill | – |
| COc1cccc2c1C(=O)c1c(O)c3c(c(O)c1C2=O)C[C@@](O)(C(=O)CO)C[C@@H]3O[C@H]1C[C@H](N)[C@H](O)[C@H](C)O1 [doxorubicin] | difficult to kill | – |
| OO [hydrogen peroxide] | difficult to kill | – |
| TRAIL: TNF (Tumor Necrosis Factor)-related apoptosis-inducing ligand, protein ligand that induces apoptosis | – | t1/2 [1]: less than 5 min; t1/2 [2]: < 30 min |
| conatumumab: human anti-DR5 agonistic antibody (Creative Biolabs) | – | apoptosis (caspase 3/7 activity, FIG. 9) (EtOH-activated PSCs): induced strong apoptosis dose-dependently |
